{
  "source": "patent US9072746B2",
  "about": "“Method for enhancing learning and memory impaired by neurodegenerative disorders and compounds and compositions for effecting the same” (The Board of Trustees of the Leland Stanford Junior …, priority 2010, dated 2015)",
  "assay_type_in_all_cases": "in vivo",
  "key": {"[1]": {"system": "C57Bl/6J mice", "test": "Contextual fear conditioning memory retrieval (FIG. 10A, B)", "details": "betaxolol 1 mg/kg s.c.", "protocol": "In all experiments xamoterol 3 mg/kg, atenolol 3 mg/kg, and betaxolol 1 mg/kg were injected subcutaneously. […] Results are shown as mean+SEM (ns=not significant, *=p<0.05, and **=p<0.01)."}, "[2]": {"system": "male 2N mice", "test": "T-maze spontaneous alternation", "details": "xamoterol 3 mg/kg s.c. 1 h, betaxolol 1 mg/kg s.c. 30 min before testing", "source_text": "(§1) The T-maze had 3 equal arms (30 cm length, 10 cm width, and 20 cm height). The start arm and 2 goal arms had guillotine gates. This test was based on the rodents' preference to experience a new arm of the T-maze instead of a familiar one ([…], 1998). In each trial, the mouse was placed in the start arm. The gate was then opened and the mouse was able to freely explore the arms. As soon as the mouse entered one goal arm, the sliding gate of the other goal arm closed. The mouse eventually returned to the start arm and the next trial was started. In the next trial, the mouse may recognize the previously chosen goal arm and choose to explore a new arm rather than revisit the previously visited arm. This trial was repeated 11 times per day for 3 consecutive days, for a total of 33 trials. The maze was cleaned with 50% ethanol between trials to eliminate odor. Percent of alternation (number of turns in each goal arm) was used for analysis. This protocol has been described before by Belichenko et al. (2009) and is modified from a Deacon and Rawlins (2006) protocol (Deacon and Rawlins, 2006; Belichenko et al., 2009). […] In this part of the study, activity chamber and three cognitive tests, including T-maze spontaneous alternation, contextual fear conditioning (CFC), and novel object recognition were performed. In T-maze spontaneous alternation and contextual fear conditioning, both Ts65Dn and 2N male mice were divided into three treatment groups including normal saline (Vehicle), xamoterol, and betaxolol plus xamoterol groups. In the novel object recognition test, both Ts65Dn and 2N male mice were divided into two treatment groups, normal saline and xamoterol. The T-maze was performed exactly as previously described. […] On the first day (training day), animals were placed in the fear conditioning chamber, and after a 3-minute pre-shock period, they were exposed to 5 shocks (2 s, 0.5 mA,) with inter-trial intervals of 80 seconds and no tone. On the second day, the animals first received xamoterol, xamoterol plus betaxolol, or saline injection, and one hour later, they were placed in the same chamber for 5 minutes. Similar to the previous description of fear conditioning, freezing was defined as the complete lack of motion for a minimum of o.75 second. The Novel Object Recognition task is conducted in an open field arena (40 cm×40 cm). Mice were habituated in the testing room for 1 hour followed by 5 minutes habituation inside the arena without any objects. On 4th day animals were introduced 3 times to arena with 3 identical subjects for 10 minutes with 3 minutes inter trial intervals. On 5th day (24 hours after trainings) one of the objects replaced by a novel one and the time sniffing of each object were used for analysis. For testing the role of β1 adrenergic system, xamoterol and betaxolol (Tocris Bioscience, Ellisville, Mo.) were injected subcutaneously using 10 ml/kg normal saline as vehicle. Xamoterol, (3 mg/kg) was given one hour before testing and betaxolol (1 mg/kg) was given 30 minutes before testing."}, "[3]": {"system": "male Ts65Dn mice", "test": "T-maze spontaneous alternation", "details": "for effect on T-maze spontaneous alternation deficit: xamoterol 3 mg/kg s.c.", "source_text": "as §1"}, "[4]": {"system": "male 2N mice", "test": "Novel object recognition", "details": "xamoterol 3 mg/kg s.c.", "protocol": "(§2) In this part of the study, activity chamber and three cognitive tests, including T-maze spontaneous alternation, contextual fear conditioning (CFC), and novel object recognition were performed. In T-maze spontaneous alternation and contextual fear conditioning, both Ts65Dn and 2N male mice were divided into three treatment groups including normal saline (Vehicle), xamoterol, and betaxolol plus xamoterol groups. In the novel object recognition test, both Ts65Dn and 2N male mice were divided into two treatment groups, normal saline and xamoterol. The T-maze was performed exactly as previously described. […] On the first day (training day), animals were placed in the fear conditioning chamber, and after a 3-minute pre-shock period, they were exposed to 5 shocks (2 s, 0.5 mA,) with inter-trial intervals of 80 seconds and no tone. On the second day, the animals first received xamoterol, xamoterol plus betaxolol, or saline injection, and one hour later, they were placed in the same chamber for 5 minutes. Similar to the previous description of fear conditioning, freezing was defined as the complete lack of motion for a minimum of o.75 second. The Novel Object Recognition task is conducted in an open field arena (40 cm×40 cm). Mice were habituated in the testing room for 1 hour followed by 5 minutes habituation inside the arena without any objects. On 4th day animals were introduced 3 times to arena with 3 identical subjects for 10 minutes with 3 minutes inter trial intervals. On 5th day (24 hours after trainings) one of the objects replaced by a novel one and the time sniffing of each object were used for analysis. For testing the role of β1 adrenergic system, xamoterol and betaxolol (Tocris Bioscience, Ellisville, Mo.) were injected subcutaneously using 10 ml/kg normal saline as vehicle. Xamoterol, (3 mg/kg) was given one hour before testing and betaxolol (1 mg/kg) was given 30 minutes before testing."}, "[5]": {"system": "male Ts65Dn mice", "test": "Novel object recognition", "details": "xamoterol 3 mg/kg s.c.", "protocol": "as §2"}, "[6]": {"test": "Plasma and brain sample analysis after subcutaneous injection (FIG. 10C, D)", "details": "after subcutaneous injection of 3 mg/kg", "protocol": "FIG. 10 Xamoterol improves the memory retrieval dose-dependently by interaction with the adrenergic receptors in central nervous system. […] In all experiments xamoterol 3 mg/kg, atenolol 3 mg/kg, and betaxolol 1 mg/kg were injected subcutaneously. […] Results are shown as mean+SEM (ns=not significant, *=p<0.05, and **=p<0.01)."}},
  "note": "“Also recorded” adds a separate entry of the source.",
  "data": [
    {"molecule": "O=C(NCCNCC(O)COc1ccc(O)cc1)N1CCOCC1", "note": "(stereo not drawn) [xamoterol]", "values": [
      {"measurement": "reversal of betaxolol-induced impairment of memory retrieval", "setting": "[1]", "result": "reverse the impairment dose-dependently"},
      {"measurement": "% of Spontaneous Alternation in T-maze, Mean ± SEM", "setting": "[2]", "result": "64.4 ± 2.1", "unit": "%"},
      {"measurement": "effect on T-maze spontaneous alternation deficit", "setting": "[3]", "result": "completely rescue; also recorded: rescued"},
      {"measurement": "% of Spontaneous Alternation in T-maze, Mean ± SEM", "setting": "[3]; xamoterol 3 mg/kg s.c. 1 h, betaxolol 1 mg/kg s.c. 30 min before testing", "result": "60.4 ± 4.5", "unit": "%"},
      {"measurement": "effect on T-maze spontaneous alternation deficit", "setting": "[3]; listed as Xamoterol", "result": "rescued"},
      {"measurement": "effect on T-maze spontaneous alternation deficit", "setting": "[3]; listed as Xamoterole", "result": "Xamoterole can rescue the deficit in"},
      {"measurement": "effect on novel object recognition performance", "setting": "[4]; 2N mice", "result": "had no effect"},
      {"measurement": "% of Total Investigation in Novel Object Recognition, Mean ± SEM", "setting": "[4]; male 2N mice", "result": "78.6 ± 2.6", "unit": "%"},
      {"measurement": "% of Total Investigation in Novel Object Recognition, Mean ± SEM", "setting": "[5]", "result": "73.6 ± 4.2", "unit": "%"},
      {"measurement": "effect on novel object recognition deficit", "setting": "[5]", "result": "completely rescue; also recorded: corrected"},
      {"measurement": "effect on novel object recognition deficit", "setting": "[5]; listed as Xamoterol", "result": "could correct"},
      {"measurement": "access to blood and brain (plasma and brain samples)", "setting": "[6]", "result": "can get access to blood and brain"}
    ]}
  ]
}
